The values below come from patent US10744128B2, “6-(5-membered heteroaryl)isoquinolin-3-yl-(5-membered heteroaryl) carboxamides and preparation and use thereof” (Samumed, LLC, priority 2017, dated 2020).

In test [1] the target is recombinant GSK3β kinase (Homo sapiens (Human), UniProt P49841). The experiment in a line: GSK3β kinase assay (Ser/Thr 09 peptide Z-lyte, FRET). Format: biochemical.
Test [2] deals with recombinant DYRK1A kinase (Homo sapiens (Human), UniProt Q13627). The experiment in a line: DYRK1A kinase assay (Ser/Thr 18 peptide Z-lyte, FRET).
In test [3] the test system is SW480 colon carcinoma cells. The experiment in a line: Cell viability assay (CellTiter-Glo) in SW480 cells. To be noted: Homo sapiens, 96 h, four days. The format is cell-based, human. How it is done:
SW480 colon carcinoma cells were transduced with a lentiviral vector expressing luciferase with a human Sp5 promoter consisting of a sequence of eight TCF/LEF binding sites. SW480 cells stably expressing the Sp5-Luc reporter gene and a hygromycin resistance gene were selected by treatment with 150 µg/mL of hygromycin for 7 days. These stably transduced SW480 cells were expanded in cell culture and used for all further screening activities.
For the Cell Viability Assays, the cells were plated at 2,000 cells/well in 384-well plates with a DMEM medium containing 1% fetal bovine serum, and 1% Penicillin-Streptomycin and incubated for […] at 37° C. and 5% CO2. Eight replicates of DMSO-treated cells served as controls and cells treated with compound were performed in duplicate.
After incubation, 10 μL of CellTiter-Glo (Promega) was added to each well allowed to incubate for approximately 12 minutes. This reagent “results in cell lysis and generation of a luminescent signal proportional to the amount of ATP present. The amount of ATP is directly proportional to the number of cells present in culture, in agreement with previous reports. The CellTiter-Glo® Assay generates a “glow-type” luminescent signal, produced by the luciferase reaction (Promega.com)”.
On the technique in general: ATP-based viability assays read luminescence as a measure of living cells.

Test [4] has as its system primary human fibroblasts derived from IPF patients (LL29 cells), α-smooth muscle actin. The experiment in a line: Inhibition of fibrotic process: αSMA in TGF-β1 treated LL29 fibroblasts. The format is cell-based. To be noted: Homo sapiens, Fibroblast, 96 h; LL29 cells, TGF-β1 20 ng/mL, 4 days, % cells positive for αSMA. How it is done: Representative compounds were screened using primary human fibroblasts (derived from IPF patients) treated with TGF-β1 to determine their ability to inhibit the fibrotic process.
LL29 cells were plated at 1,500 cells/well in 70 μL/well F12 medium supplemented with 1% Fetal Bovine Serum. […] Wells treated with TGF-β1 and containing DMSO were used as positive control, and cells with only DMSO were negative control. […] Following incubation for 4 days, SYTOX green nucleic acid stain (Life Technologies [Thermo Fisher Scientific]) was added to the wells at a final concentration of 1 μM and incubated at room temperature for 30 min.

For test [5], the system named is IL-6. The experiment in a line: IL-6 inhibition in LPS-stimulated human peripheral blood mononuclear cells (HTRF). Format: cell-based. Conditions: Homo sapiens, PBMC; for EC50: huPBMCs, LPS 50 ng/mL, 22 hours, IL-6 HTRF; for inhibition at 10 µM: read-out: percent inhibition at 10 μM. How it is done: Fresh Normal PB MNC (Catalog # PB001, AllCells, Alameda, Calif.) were shipped overnight at 4° C. and resuspended in Roswell Park Memorial Institute (RPMI) 1640 Medium, with GlutaMAX Supplement (Catalog #61870127, ThermoFisher Scientific, Waltham, Mass.) supplemented with 1% Penicillin-Streptomycin (Catalog #15140163, ThermoFisher Scientific, Waltham, Mass.) and 1% fetal bovine serum (FBS) (Catalog #16140089, ThermoFisher Scientific, Waltham, Mass.) assay media.
Fresh normal human peripheral blood mononuclear cells (huPBMCs) were resuspended in 1% FBS-RPMI assay media with 1% Penicillin-Streptomycin 1% to a cell concentration of 1×10e6 cells/mL. […] 50 ng/mL of Lipopolysaccharides from Escherichia coli 0111:B4 (Catalog #L5293-2ML, Sigma-Aldrich, St. Louis, Mo.) was added after 2 hours and cells were incubated for another 22 hours at 37° C.-5% CO2. After 22 hour incubation, a mixture of anti-IL6 XL665 and anti-IL-6 Cryptate diluted in reconstitution buffer (Catalog #62IL6PEC, Cisbio Inc., Bedford, Mass.) was added to each well. Following incubation for 3 hours at room temperature, Homogeneous Time-Resolved Fluorescence (HTRF) was measured using the Envision (Perkin Elmer, Shelton, Conn.) at 665 nm and […]. The ratio of fluorescence at 665 nm to 620 nm was used as a readout for IL-6 quantification. All samples were processed in duplicate. Readings were normalized to DMSO treated cells and normalized activities were utilized for EC50 calculations. EC50 was determined using software generated by Dotmatics Limited (Windhill Bishops Stortford Herts, UK) using the Levenberg-Marquardt 4 parameter fitting procedure with finite different gradients.
(In general: Time-resolved FRET reads energy transfer from a long-lived donor to a nearby acceptor.)

Test [6] deals with Wnt-responsive promoter (Sp5-Luc reporter) in SW480 colon carcinoma cells. The experiment in a line: Sp5-Luc reporter gene screening assay for Wnt activity in SW480 cells. The format is cell-based, human. To be noted: Homo sapiens, 36 to 48 hours, luminescence. The source says: The screening assay for Wnt activity is described as follows. Reporter cell lines can be generated by stably transducing cancer cell lines (e.g., colon cancer) or primary cells (e.g., IEC-6 intestinal cells) with a lentiviral construct that includes a Wnt-responsive promoter driving expression of the firefly luciferase gene.
SW480 colon carcinoma cells were transduced with a lentiviral vector expressing luciferase with a human Sp5 promoter consisting of a sequence of eight TCF/LEF binding sites. SW480 cells stably expressing the Sp5-Luc reporter gene and a hygromycin resistance gene were selected by treatment with 150 μg/mL of hygromycin for 7 days. These stably transduced SW480 cells were expanded in cell culture and used for all further screening activities. […] For Sp5-Luc reporter gene assays, the cells were plated at 4,000 cells/well in 384-well plates with a DMEM medium containing 1% fetal bovine serum, and 1% Penicillin-Streptomycin and incubated for 36 to 48 hours at 37° C. and 5% CO2. Following incubation, 15 μl of BriteLite Plus luminescence reagent (Perkin Elmer) was added to each well of the 384-well assay plates. The plates were placed on an orbital shaker for 2 min and then luminescence was quantified using the Envision (Perkin Elmer) plate reader. Readings were normalized to DMSO only treated cells, and normalized activities were utilized for EC50 calculations using the dose-response log (inhibitor) vs. response −variable slope (four parameters) nonlinear regression feature available in GraphPad Prism 5.0 (or Dotmatics).
On the technique in general: Reporter assays use an easily measured gene product as a stand-in for the process of interest.

The mark [7] stands for this setting: GSK3β kinase, 46 μM ATP, one hour, method calls values IC50.
Where [8] appears, read: DYRK1A kinase, 30 μM ATP, one hour, method calls values IC50.

Where two headings read alike, the source gives them in different places.

Sequence of recombinant GSK3β kinase (P49841 whole entry): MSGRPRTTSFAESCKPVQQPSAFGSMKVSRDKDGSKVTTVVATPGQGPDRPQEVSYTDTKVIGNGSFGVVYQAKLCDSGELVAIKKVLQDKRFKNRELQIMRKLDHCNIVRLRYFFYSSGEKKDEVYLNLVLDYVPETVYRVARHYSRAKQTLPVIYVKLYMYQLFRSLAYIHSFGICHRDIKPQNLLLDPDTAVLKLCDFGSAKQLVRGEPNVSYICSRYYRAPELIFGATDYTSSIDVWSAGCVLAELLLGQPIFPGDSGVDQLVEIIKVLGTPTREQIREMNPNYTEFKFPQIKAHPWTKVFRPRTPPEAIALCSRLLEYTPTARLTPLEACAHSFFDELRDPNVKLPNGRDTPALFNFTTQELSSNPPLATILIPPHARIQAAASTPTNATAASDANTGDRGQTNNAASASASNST

As usually defined, the EC50 is the midpoint of the concentration-response curve. As usually defined, the inhibition is the share of the control response that was lost under treatment. As to `CC(C)N1CCC(n2cc(C(=O)Nc3cc4cc(-c5cnn(C)c5)ccc4cn3)nn2)CC1` [Compound 14, 1-(1-Isopropylpiperidin-4-yl)-N-(6-(1-methyl-1H-pyrazol-4-yl)isoquinolin-3-yl)-1H-1,2,3-triazole-4-carboxamide], the half-maximal effective concentration (EC50) in test [1] (setting [7]) is 2750 nM; in test [2] (setting [8]) it was 6 nM; in test [3], 240 nM; in test [4], 410 nM; in test [5], greater than 10000 nM; in test [6], 95 nM. Besides, in test [5], the inhibition at 10 µM came out at 46%.
Take `[2H]C([2H])([2H])n1cc(-c2ccc3cnc(NC(=O)c4coc(C5CCNCC5)n4)cc3c2)cn1` [Compound 16, N-(6-(1-(Methyl-d3)-1H-pyrazol-4-yl)isoquinolin-3-yl)-2-(piperidin-4-yl) oxazole-4-carboxamide]: the EC50 in test [1] came out at 769 nM; in test [2], 16 nM; in test [3], 113 nM; in test [4], 312 nM; in test [5], 1070 nM; in test [6] it was 115 nM.
As to `CN(C)C1CN(c2nc(C(=O)Nc3cc4cc(-c5cnn(C)c5)ccc4cn3)co2)C1` [Compound 18, 2-(3-(Dimethylamino)azetidin-1-yl)-N-(6-(1-methyl-1H-pyrazol-4-yl)isoquinolin-3-yl)oxazole-4-carboxamide], the EC50 in test [1] (setting [7]) is 1260 nM; in test [2] (setting [8]), 15 nM; in test [3], 3910 nM; in test [4] it was 481 nM; in test [5], greater than 10000 nM; in test [6] it was 1040 nM. Further, the inhibition at 10 µM in test [5] stood at 9%.
Consider `Cn1cc(-c2ccc3cnc(NC(=O)c4coc(C5CCNCC5)n4)cc3c2)cn1` [Compound 19, N-(6-(1-Methyl-1H-pyrazol-4-yl)isoquinolin-3-yl)-2-(piperidin-4-yl)oxazole-4-carboxamide], for which the concentration giving a half-maximal response (EC50) in test [1] (setting [7]) was 979 nM; in test [2] (setting [8]), 12 nM; in test [3], 300 nM; in test [4], 170 nM; in test [5], 695 nM; in test [6], 106 nM.
Take `CN1CCC(c2nc(C(=O)Nc3cc4cc(-c5cnn(C)c5)ccc4cn3)co2)CC1` [Compound 20, N-(6-(1-Methyl-1H-pyrazol-4-yl)isoquinolin-3-yl)-2-(1-methylpiperidin-4-yl)oxazole-4-carboxamide]: the EC50 was 3240 nM in test [1] (setting [7]); 15 nM in test [2] (setting [8]); 427 nM in test [3]; 2000 nM in test [4]; 3690 nM in test [5]; 107 nM in test [6].
For `CC(C)N1CCC(c2nc(C(=O)Nc3cc4cc(-c5cnn(C)c5)ccc4cn3)co2)CC1` [Compound 22, 2-(1-Isopropylpiperidin-4-yl)-N-(6-(1-methyl-1H-pyrazol-4-yl)isoquinolin-3-yl)oxazole-4-carboxamide], the EC50 in test [1] (setting [7]) is 2590 nM; in test [2] (setting [8]), 16 nM; in test [3] it was 782 nM; in test [4], 2910 nM; in test [5], greater than 10000 nM; in test [6], 180 nM. Further, the inhibition at 10 µM in test [5] was determined as 27.8%.
For `CN1CCN(c2nc(C(=O)Nc3cc4cc(-c5cnn(C)c5)ccc4cn3)co2)CC1` [Compound 23, N-(6-(1-Methyl-1H-pyrazol-4-yl)isoquinolin-3-yl)-2-(4-methylpiperazin-1-yl)oxazole-4-carboxamide], the EC50 is 2180 nM in test [1] (setting [7]); 18 nM in test [2] (setting [8]); 3730 nM in test [3]; 325 nM in test [4]; greater than 10000 nM in test [5]; 1020 nM in test [6]. Besides, in test [5], the inhibition at 10 µM was determined as 5.5%.
Turning to `CN(C)C1CN(c2ncc(C(=O)Nc3cc4cc(-c5cnn(C)c5)ccc4cn3)s2)C1` [Compound 24, 2-(3-(Dimethylamino)azetidin-1-yl)-N-(6-(1-methyl-1H-pyrazol-4-yl)isoquinolin-3-yl)thiazole-5-carboxamide], the EC50 in test [1] (setting [7]) was 1760 nM; in test [2] (setting [8]), 2 nM; in test [3] it was 1640 nM; in test [4], 2750 nM; in test [5], 3020 nM; in test [6], 1320 nM.
On to `Cn1cc(-c2ccc3cnc(NC(=O)c4csc(C5CCNCC5)n4)cc3c2)cn1` [Compound 25, N-(6-(1-Methyl-1H-pyrazol-4-yl)isoquinolin-3-yl)-2-(piperidin-4-yl) thiazole-4-carboxamide], for which the EC50 was 3060 nM in test [1] (setting [7]); 39 nM in test [2] (setting [8]); 876 nM in test [3]; 1190 nM in test [4]; 2580 nM in test [5]; 546 nM in test [6].
With `CN1CCN(c2nc(C(=O)Nc3cc4cc(-c5cnn(C)c5)ccc4cn3)cs2)CC1` [Compound 26, N-(6-(1-Methyl-1H-pyrazol-4-yl)isoquinolin-3-yl)-2-(4-methylpiperazin-1-yl)thiazole-4-carboxamide], the EC50 in test [1] (setting [7]) was 2190 nM; in test [2] (setting [8]), 3 nM; in test [3], 3410 nM; in test [4], 4700 nM; in test [5], greater than 10000 nM; in test [6] it was 1750 nM. The inhibition at 10 µM in test [5] turned out to be 40.3%.
Turning to `Cn1cc(-c2ccc3cnc(NC(=O)c4cnn(C5CCNCC5)c4)cc3c2)nn1` [Compound 29, N-(6-(1-Methyl-1H-1,2,3-triazol-4-yl)isoquinolin-3-yl)-1-(piperidin-4-yl)-1H-pyrazole-4-carboxamide], the 50% effective concentration (EC50) in test [1] (setting [7]) amounted to 230 nM; in test [2] (setting [8]) it was 3 nM; in test [3], 60 nM; in test [4] it was 135 nM; in test [5], 366 nM; in test [6], 30 nM.
For the compound `CN1CCC(n2cc(C(=O)Nc3cc4cc(-c5cn(C)nn5)ccc4cn3)cn2)CC1` [Compound 30, N-(6-(1-Methyl-1H-1,2,3-triazol-4-yl)isoquinolin-3-yl)-1-(1-methylpiperidin-4-yl)-1H-pyrazole-4-carboxamide], the EC50 worked out at 322 nM in test [1] (setting [7]); 3 nM in test [2] (setting [8]); 32 nM in test [3]; 83 nM in test [4]; 261 nM in test [5]; 14 nM in test [6].
